Measured values taken from patent publication US20240043404A1 (AbbVie Inc., priority 2009, published 2024).
Like-named read-outs stand apart in the source and are kept apart here.

System: RS4;11 cells
Test: RS4;11 cell viability assay (CellTiter Glo);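 note: acute lymphoblastic leukemia line RS4,11, EC50 derived from percentage of viable cells after treatment relative to untreated controls, cell killing taken as a measure of Bcl-2 inhibition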
Format: cell-based, human
Settings: 10% human serum, 48 hours, read-out: RS4, 11 EC50 Values
[1] = Homo sapiens, RS4-11, 48 h, 50,000 cells per well

Protocol: The acute lymphoblastic leukemia (ALL) cell line RS4;11 was used as the primary human cell line to assess the cellular activity of Bcl-2 selective agents in vitro and their efficacy in vivo.
Cell cytotoxicity EC50 values were assessed using CellTiter Glo (Promega) according to the manufacturer's recommendations. The EC50 values were determined as a percentage of viable cells following treatment compared to the untreated control cells.

SMILES | EC50 [1] [µM] | EC50 (50,000 cells per well) [µM]
CC1(C)CCC(CN2CCN(c3ccc(C(=O)NS(=O)(=O)c4ccc(NC[C@H]5CC[C@](C)(O)CC5)c([N+](=O)[O-])c4)c(Oc4cnc5[nH]ccc5c4)c3)CC2)=C(c2ccc(Cl)cc2)C1 [Example 338, 4-(4-{[2-(4-chlorophenyl)-4,4-dimethylcyclohex-1-en-1-yl]methyl}piperazin-1-yl)-N-[(4-{[(cis-4-hydroxy-4-methylcyclohexyl)methyl]amino}-3-nitrophenyl)sulfonyl]-2-(1H-pyrrolo[2,3-b]pyridin-5-yloxy)benzamide] |  | 0.0034
CC1(C)CCC(CN2CCN(c3ccc(C(=O)NS(=O)(=O)c4ccc(NC5CCC(N(CCC#N)C6CC6)CC5)c([N+](=O)[O-])c4)c(Oc4cnc5[nH]ccc5c4)c3)CC2)=C(c2ccc(Cl)cc2)C1 (stereo not drawn) [Example 340, 4-(4-{[2-(4-chlorophenyl)-4,4-dimethylcyclohex-1-en-1-yl]methyl}piperazin-1-yl)-N-{[4-({4-[(2-cyanoethyl)(cyclopropyl)amino]cyclohexyl}amino)-3-nitrophenyl]sulfonyl}-2-(1H-pyrrolo[2,3-b]pyridin-5-yloxy)benzamide] | 0.0565 | 
CC1(C)CCC(CN2CCN(c3ccc(C(=O)NS(=O)(=O)c4ccc(NC5CCC(N6CCC(F)(F)C6)CC5)c([N+](=O)[O-])c4)c(Oc4cnc5[nH]ccc5c4)c3)CC2)=C(c2ccc(Cl)cc2)C1 (stereo not drawn) [Example 346, 4-(4-{[2-(4-chlorophenyl)-4,4-dimethylcyclohex-1-en-1-yl]methyl}piperazin-1-yl)-N-[(4-{[4-(3,3-difluoropyrrolidin-1-yl)cyclohexyl]amino}-3-nitrophenyl)sulfonyl]-2-(1H-pyrrolo[2,3-b]pyridin-5-yloxy)benzamide] | 0.19 | 
CC1(C)CCC(CN2CCN(c3ccc(C(=O)NS(=O)(=O)c4ccc(NC5CCC(NC6CC6(F)F)CC5)c([N+](=O)[O-])c4)c(Oc4cnc5[nH]ccc5c4)c3)CC2)=C(c2ccc(Cl)cc2)C1 (stereo not drawn) [Example 349, 4-(4-{[2-(4-chlorophenyl)-4,4-dimethylcyclohex-1-en-1-yl]methyl}piperazin-1-yl)-N-{[4-({4-[(2,2-difluorocyclopropyl)amino]cyclohexyl}amino)-3-nitrophenyl]sulfonyl}-2-(1H-pyrrolo[2,3-b]pyridin-5-yloxy)benzamide] | 0.0231 | 
CC1(C)CCC(CN2CCN(c3ccc(C(=O)NS(=O)(=O)c4ccc(OCC5CCC6(CC5)COC6)c([N+](=O)[O-])c4)c(Oc4cnc5[nH]ccc5c4)c3)CC2)=C(c2ccc(Cl)cc2)C1 [Example 351, 4-(4-{[2-(4-chlorophenyl)-4,4-dimethylcyclohex-1-en-1-yl]methyl}piperazin-1-yl)-N-{[3-nitro-4-(2-oxaspiro[3.5]non-7-ylmethoxy)phenyl]sulfonyl}-2-(1H-pyrrolo[2,3-b]pyridin-5-yloxy)benzamide] | 0.00206 | 
O=C(NS(=O)(=O)c1ccc(NCC2CCOCC2)c([N+](=O)[O-])c1)c1ccc(N2CCN(CC3=C(c4ccc(Cl)cc4)CCC(CF)(CF)C3)CC2)cc1Oc1cnc2[nH]ccc2c1 [Example 353, 4-(4-{[2-(4-chlorophenyl)-5,5-bis(fluoromethyl)cyclohex-1-en-1-yl]methyl}piperazin-1-yl)-N-({3-nitro-4-[(tetrahydro-2H-pyran-4-ylmethyl)amino]phenyl}sulfonyl)-2-(1H-pyrrolo[2,3-b]pyridin-5-yloxy)benzamide] | 0.00505 | 
CC1(C)CCC(CN2CCN(c3ccc(C(=O)NS(=O)(=O)c4ccc(OCC5(F)CCN(C6COC6)CC5)c(C#N)c4)c(Oc4cnc5[nH]ccc5c4)c3)CC2)=C(c2ccc(Cl)cc2)C1 [Example 357, 4-(4-{[2-(4-chlorophenyl)-4,4-dimethylcyclohex-1-en-1-yl]methyl}piperazin-1-yl)-N-[(3-cyano-4-{[4-fluoro-1-(oxetan-3-yl)piperidin-4-yl]methoxy}phenyl)sulfonyl]-2-(1H-pyrrolo[2,3-b]pyridin-5-yloxy)benzamide] | 0.0132 | 
COCC1(C)CCC(c2ccc(Cl)cc2)=C(CN2CCN(c3ccc(C(=O)NS(=O)(=O)c4ccc(NCC5CCOCC5)c([N+](=O)[O-])c4)c(Oc4cnc5[nH]ccc5c4)c3)CC2)C1 (stereo not drawn) [Example 360, 4-(4-{[2-(4-chlorophenyl)-5-(methoxymethyl)-5-methylcyclohex-1-en-1-yl]methyl}piperazin-1-yl)-N-({3-nitro-4-[(tetrahydro-2H-pyran-4-ylmethyl)amino]phenyl}sulfonyl)-2-(1H-pyrrolo[2,3-b]pyridin-5-yloxy)benzamide] | 0.0099 | 
CC1(C)CCC(CN2CCN(c3ccc(C(=O)NS(=O)(=O)c4ccc(NC[C@H]5CN(C6COC6)CCO5)c([N+](=O)[O-])c4)c(Oc4cnc5[nH]ccc5c4)c3)CC2)=C(c2ccc(Cl)cc2)C1 [Example 361, 4-(4-{[2-(4-chlorophenyl)-4,4-dimethylcyclohex-1-en-1-yl]methyl}piperazin-1-yl)-N-{[3-nitro-4-({[(2S)-4-(oxetan-3-yl)morpholin-2-yl]methyl}amino)phenyl]sulfonyl}-2-(1H-pyrrolo[2,3-b]pyridin-5-yloxy)benzamide] | 0.000538 | 

Further lines, results first:

EC50 [1] [µM] | EC50 (50,000 cells per well) [µM] | SMILES
> 1 |  | CCN(C)C(=O)N1CCO[C@H](COc2ncc(S(=O)(=O)NC(=O)c3ccc(N4CCN(CC5=C(c6ccc(Cl)cc6)CC(C)(C)CC5)CC4)cc3Oc3cnc4[nH]ccc4c3)cc2Cl)C1 [Example 334, (2S)-2-{[(3-chloro-5-{[4-(4-{[2-(4-chlorophenyl)-4,4-dimethylcyclohex-1-en-1-yl]methyl}piperazin-1-yl)-2-(1H-pyrrolo[2,3-b]pyridin-5-yloxy)benzoyl]sulfamoyl}pyridin-2-yl)oxy]methyl}-N-ethyl-N-methylmorpholine-4-carboxamide]
0.27 |  | CC1(C)CCC(CN2CCN(c3ccc(C(=O)NS(=O)(=O)c4cnc(NCC5CN(C6CC6)CCO5)c(Cl)c4)c(Oc4cnc5[nH]ccc5c4)c3)CC2)=C(c2ccc(Cl)cc2)C1 (stereo not drawn) [Example 335, N-[(5-chloro-6-{[(4-cyclopropylmorpholin-2-yl)methyl]amino}pyridin-3-yl)sulfonyl]-4-(4-{[2-(4-chlorophenyl)-4,4-dimethylcyclohex-1-en-1-yl]methyl}piperazin-1-yl)-2-(1H-pyrrolo[2,3-b]pyridin-5-yloxy)benzamide]
0.351 |  | CCN(C)C(=O)N1CCOC(CNc2ncc(S(=O)(=O)NC(=O)c3ccc(N4CCN(CC5=C(c6ccc(Cl)cc6)CC(C)(C)CC5)CC4)cc3Oc3cnc4[nH]ccc4c3)cc2Cl)C1 (stereo not drawn) [Example 336, 2-{[(3-chloro-5-{[4-(4-{[2-(4-chlorophenyl)-4,4-dimethylcyclohex-1-en-1-yl]methyl}piperazin-1-yl)-2-(1H-pyrrolo[2,3-b]pyridin-5-yloxy)benzoyl]sulfamoyl}pyridin-2-yl)amino]methyl}-N-ethyl-N-methylmorpholine-4-carboxamide]
0.45 |  | CC1(C)CCC(CN2CCN(c3ccc(C(=O)NS(=O)(=O)c4cnc(OC[C@@H]5C[C@H]6C[C@@H]5C[C@@]6(C)O)c(Cl)c4)c(Oc4cnc5[nH]ccc5c4)c3)CC2)=C(c2ccc(Cl)cc2)C1 [Example 339, N-[(5-chloro-6-{[(1R,2R,4R,5R)-5-hydroxy-5-methylbicyclo[2.2.1]hept-2-yl]methoxy}pyridin-3-yl)sulfonyl]-4-(4-{[2-(4-chlorophenyl)-4,4-dimethylcyclohex-1-en-1-yl]methyl}piperazin-1-yl)-2-(1H-pyrrolo[2,3-b]pyridin-5-yloxy)benzamide]
0.0509 |  | CC1(C)CCC(CN2CCN(c3ccc(C(=O)NS(=O)(=O)c4cnc(OCC5CCc6nccn6C5)c(Cl)c4)c(Oc4cnc5[nH]ccc5c4)c3)CC2)=C(c2ccc(Cl)cc2)C1 (stereo not drawn) [Example 342, 4-(4-{[2-(4-chlorophenyl)-4,4-dimethylcyclohex-1-en-1-yl]methyl}piperazin-1-yl)-N-{[5-chloro-6-(5,6,7,8-tetrahydroimidazo[1,2-a]pyridin-6-ylmethoxy)pyridin-3-yl]sulfonyl}-2-(1H-pyrrolo[2,3-b]pyridin-5-yloxy)benzamide]
0.127 |  | CC1(C)CCC(CN2CCN(c3ccc(C(=O)NS(=O)(=O)c4cnc(OC[C@H]5C[C@H]6C[C@@H]5C[C@@]6(C)O)c(Cl)c4)c(Oc4cnc5[nH]ccc5c4)c3)CC2)=C(c2ccc(Cl)cc2)C1 [Example 343, N-[(5-chloro-6-{[(1R,2S,4R,5R)-5-hydroxy-5-methylbicyclo[2.2.1]hept-2-yl]methoxy}pyridin-3-yl)sulfonyl]-4-(4-{[2-(4-chlorophenyl)-4,4-dimethylcyclohex-1-en-1-yl]methyl}piperazin-1-yl)-2-(1H-pyrrolo[2,3-b]pyridin-5-yloxy)benzamide]
0.00925 |  | O=C(NS(=O)(=O)c1cnc(OCC2(F)CCN(C3COC3)CC2)c(Cl)c1)c1ccc(N2CCN(CC3=C(c4ccc(Cl)cc4)CC4(CC3)CC4)CC2)cc1Oc1cnc2[nH]ccc2c1 [Example 345, N-[(5-chloro-6-{[4-fluoro-1-(oxetan-3-yl)piperidin-4-yl]methoxy}pyridin-3-yl)sulfonyl]-4-(4-{[5-(4-chlorophenyl)spiro[2.5]oct-5-en-6-yl]methyl}piperazin-1-yl)-2-(1H-pyrrolo[2,3-b]pyridin-5-yloxy)benzamide]
0.0532 |  | CC1(C)CCC(CN2CCN(c3ccc(C(=O)NS(=O)(=O)c4ccc(OCC5CN(C6CC6)CCO5)c([N+](=O)[O-])c4)c(Oc4cnc5[nH]ccc5c4)c3)CC2)=C(c2ccc(Cl)cc2)C1 (stereo not drawn) [Example 354, 4-(4-{[2-(4-chlorophenyl)-4,4-dimethylcyclohex-1-en-1-yl]methyl}piperazin-1-yl)-N-({4-[(4-cyclopropylmorpholin-2-yl)methoxy]-3-nitrophenyl}sulfonyl)-2-(1H-pyrrolo[2,3-b]pyridin-5-yloxy)benzamide]
 | 0.0188 | CC1(C)CCC(CN2CCN(c3ccc(C(=O)NS(=O)(=O)c4cnc(OC[C@]5(F)CC[C@@](C)(O)CC5)c(Cl)c4)c(Oc4cnc5[nH]ccc5c4)c3)CC2)=C(c2ccc(Cl)cc2)C1 [Example 355, N-({5-chloro-6-[(trans-1-fluoro-4-hydroxy-4-methylcyclohexyl)methoxy]pyridin-3-yl}sulfonyl)-4-(4-{[2-(4-chlorophenyl)-4,4-dimethylcyclohex-1-en-1-yl]methyl}piperazin-1-yl)-2-(1H-pyrrolo[2,3-b]pyridin-5-yloxy)benzamide]
